Results from patent US20250177357A1, “METHODS FOR TREATING HYPERTROPHIC CARDIOMYOPATHY” (priority 2021, published 2025).

Legend:
Assay type in all cases: in vivo, human
[1] = Phase 1 plasma pharmacokinetics, single-ascending dose cohorts
Procedure: Single-ascending dose (SAD) cohorts. The SAD portion of the study used a randomized, double-blind, placebo-controlled, sequential, escalating-dose design, in which participants received single-ascending oral doses of the study drug. Seven cohorts were dosed in sequence (FIG. 2).
Pharmacokinetic analyses. For all study groups, blood samples for PK assessment were obtained pre-dose, up to 12 times daily on day 1, and then at regular intervals throughout the study. Blood samples were collected according to the following schedule: SAD Cohorts: Day 1: pre-dose and 0.25, 0.5, 1, 1.5, 2, 2.5, 3, 4, 6, 8, 12, 16, 24, 36, 48, 72, 96, and 216 h post dose. MAD Cohorts (14-day Dosing): Day 1: pre-dose and 0.25, 0.5, 1, 1.5, 2, 2.5, 3, 4, 6, 8, and 12 h post dose; Days 2, 4, 5, 6, and 9: pre-dose (corresponding to trough samples following dosing on days 1, 3, 4, 5, and 8) and 1.5 h post dose; Days 3, 7, 8, 10, 11, 12, and 13: pre-dose (corresponding to trough samples following dosing on days 2, 6, 7, 9, 10, 11, and 12); Day 14: pre-dose and 0.25, 0.5, 1.5, 2, 2.5, 3, 4, 6, 8, 12, 16, 24, 36, 48, 72, and 168 h post dose. MAD Cohort (17-Day Dosing): Day 1: pre-dose and 0.25, 0.5, 1, 1.5, 2, 2.5, 3, 4, 6, 8, and 12 h post dose; Days 2, 4, 5, 6, and 9: pre-dose (corresponding to trough samples following dosing on days 1, 3, 4, 5, and 8) and 1.5 h post dose; Days 3, 7, 8, 10, 11, 12, 13, 14, 15, and 16: pre-dose (corresponding to trough samples following dosing on days 2, 6, 7, 9, 10, 11, and 12); Day 17: pre-dose and 0.25, 0.5, 1.5, 2, 2.5, 3, 5, 7, 9, 12, 24, 36, 48, 72, and 168 h post dose. CYPD6-PM Cohort: Day 1: pre-dose and 0.25, 0.5, 1, 1.5, 2, 2.5, 3, 4, 6, 8, 12, 16, 24, 36, 48, 72, 96, 216, 312, and 552 h post dose. Food-Effect Cohort: Day 1: pre-dose and 0.25, 0.5, 1, 1.5, 2, 2.5, 3, 4, 6, 8, 12, 16, 24, 36, 48, 72, 96, 144, and 216 h post dose. Standard non-compartmental methods were used to calculate PK parameters using Phoenix® WinNonlin® Version 7.0; actual sample collection times were utilized.
For the MAD cohort, the parameters were AUC24 and Cmax on day 1, plus AUC to the […] (AUCtau) and Cmax on day 14 or 17. The statistical linear relationship between the ln-transformed PK parameters and the ln-transformed dose was verified by including the quadratic (ln Dose)^2 and cubic (ln Dose)^3 effects. […] The dose-proportionality analysis was performed using SAS® PROC MIXED.

[2] = Phase 1 plasma pharmacokinetics, CYP2D6 poor metabolizer cohort; settings: CYP2D6 poor metabolizers, single 10 mg, n = 7
Procedure: CYP2D6 poor metabolizer cohort.
CYP2D6 genotypes were determined at screening for all study participants; those identified as CYP2D6-PMs were excluded from the SAD and MAD cohorts but were invited to participate in the CYP2D6-PM cohort. The first individual in the CYP2D6-PM cohort was dosed after the SAD 25-mg cohort (FIG. 2). […] Nine participants were randomized (7:2) with a sentinel dosing group consisting of the first 2 participants treated.
Pharmacokinetic analyses. For all study groups, blood samples for PK assessment were obtained pre-dose, up to 12 times daily on day 1, and then at regular intervals throughout the study. Blood samples were collected according to the following schedule: SAD Cohorts: Day 1: pre-dose and 0.25, 0.5, 1, 1.5, 2, 2.5, 3, 4, 6, 8, 12, 16, 24, 36, 48, 72, 96, and 216 h post dose. MAD Cohorts (14-day Dosing): Day 1: pre-dose and 0.25, 0.5, 1, 1.5, 2, 2.5, 3, 4, 6, 8, and 12 h post dose; Days 2, 4, 5, 6, and 9: pre-dose (corresponding to trough samples following dosing on days 1, 3, 4, 5, and 8) and 1.5 h post dose; Days 3, 7, 8, 10, 11, 12, and 13: pre-dose (corresponding to trough samples following dosing on days 2, 6, 7, 9, 10, 11, and 12); Day 14: pre-dose and 0.25, 0.5, 1.5, 2, 2.5, 3, 4, 6, 8, 12, 16, 24, 36, 48, 72, and 168 h post dose. […]

[3] = tested on: patients with symptomatic obstructive HCM (oHCM); experiment: Phase 2 trial in oHCM, Cohorts 1 and 2: echocardiography, NYHA class, biomarkers; settings: for Average ejection fraction: at 10 weeks
Description: Cohort 3 included patients receiving disopyramide.
Since patient characteristics vary substantially in this disease, individualized dose titration to a pharmacodynamics (PD) response (reduction of the LVOT-G to <30 mmHg with preservation of LVEF>50%) was employed to maximize efficacy and safety.
Body weight was ≥45 kg at screening; 4. […] Adequate acoustic windows for echocardiography; 6. Had LVOT-G during screening as follows for Cohorts 1 and 2: (a) resting gradient≥50 mmHg; or (b) resting gradient≥30 mmHg and <50 mmHg with post-Valsalva LVOT-G≥50 mmHg; or as follows for Cohort 3: persistent resting LVOT obstruction (≥30 mmHg) and provoked LVOT obstruction (≥50 mmHg); 7. Left ventricular ejection fraction (LVEF)≥60% at screening; 8. […] Able to complete all screening procedures; and 13. Taking stable doses of disopyramide for >4 weeks prior to screening (Cohort 3 only).
Aortic stenosis or fixed subaortic obstruction; 2. […] Has been treated with septal reduction therapy (surgical myectomy or percutaneous alcohol septal ablation) or has plans for either treatment during the study period; 6. […] Hemoglobin<10.0 g/dL at screening; 18. […] Has received prior treatment with CK-3773274 or is currently receiving mavacamten; 21.
Patients up-titrated to Dose 2 if either of the following conditions were met on echocardiography: (1) resting LVOT-G≥30 mmHg and the biplane LVEF≥50%; or (2) resting LVOT-G<30 mmHg, post-Valsalva LVOT-G≥50 mmHg, and the biplane LVEF≥50%. Otherwise, the patient remains on Dose 1. If LVEF is <50% at Week 2, the patient was down-titrated to placebo.
Patients were escalated to the next higher dose if either of the following conditions were met on echocardiography: (1) resting LVOT-G≥30 mmHg and the biplane LVEF≥50%; or (2) resting LVOT-G<30 mmHg, post-Valsalva LVOT-G≥50 mmHg, and the biplane LVEF≥50%. Otherwise, the patient remained on the same dose. If LVEF was <50% at Week 4, the patient was returned to a prior dose level or to placebo if the patient was on Dose 1.
Echocardiograms obtained every 2 weeks and 2 weeks after the last dose were analyzed for several key structural and physiologic metrics and N-terminal prohormone of brain natriuretic peptide (NT-proBNP).
Initial results from the clinical study included data from two sequentially conducted cohorts, Cohort 1 (n=21) and Cohort 2 (n=20) which randomized treatment of patients 2:1 to CK-274 or placebo. […] Overall, treatment duration for each patient in the study was 10 weeks with an echocardiogram conducted 2 weeks after the last dose.

CCc1nc(-c2ccc3c(c2)CC[C@H]3NC(=O)c2cnn(C)c2)no1 [aficamten, (R)—N-(5-(5-ethyl-1,2,4-oxadiazol-3-yl)-2,3-dihydro-1H-inden-1-yl)-1-methyl-1H-pyrazole-4-carboxamide]
Maximum time to maximum observed concentration across all participants ([1]; SAD cohorts): 4.0 h
CL/F, mean ± SD ([1]; single oral dose 3 mg, n = 5): 4.2 ± 3.1 L/h
CL/F, mean ± SD ([1]; single oral dose 10 mg, n = 4): 3.0 ± 0.7 L/h
CL/F, mean ± SD ([1]; single oral dose 25 mg, n = 6): 3.6 ± 0.5 L/h
CL/F, mean ± SD ([1]; single oral dose 40 mg, n = 5): 3.4 ± 0.6 L/h
CL/F, mean ± SD ([1]; single oral dose 50 mg, n = 9): 3.8 ± 1.1 L/h
CL/F, mean ± SD [2]: 3.6 ± 1.4 L/h
Patients with complete hemodynamic response / target goal (resting gradient <30 mmHg and post-Valsalva gradient <50 mmHg) ([3]; Cohort 1 (5, 10, 15 mg), Week 10, 11 out of 14): 79%
Average ejection fraction ([3]; Cohort 1 (n=14), baseline 72.8 (73±6)): 67±9%
Patients with complete hemodynamic response / target goal (resting gradient <30 mmHg and post-Valsalva gradient <50 mmHg) ([3]; Cohort 2 (10, 20, 30 mg), Week 10, 13 out of 14): 93%
Average ejection fraction ([3]; Cohort 2 (n=14), baseline 75.4 (75±6)): 64±8%
Patients converted from NYHA class III to class II or I ([3]; Cohorts 1 and 2): 7 patients
Time of occurrence of reductions in LVOT-G after initiating treatment ([3]; Cohorts 1 and 2): within two weeks
Time of peak reduction in LVOT-G ([3]; Cohorts 1 and 2): within two to six weeks of the end of dose titration
Patients who improved from NYHA class III to I ([3]; pooled aficamten Cohorts 1 and 2): one
LVMI mean difference vs placebo ([3]; week 10, p=0.063): 8.1 g/m^2
